Patent publication US10851108B2, “Substituted bicyclic heterocyclic compounds” (BRISTOL-MYERS SQUIBB COMPANY, priority 2016, dated 2020)

What was measured:
Assay type in all cases: cell-based
hROMK (human Kir1.1) = hROMK (human Kir1.1) (Homo sapiens (Human), UniProt P48048); assay: Thallium Flux Assay; conditions: CHO T-Rex hROMK stable cell line, 10-point concentration response; read-out: hROMK Th+ Flux IC50
In short: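 CHO T-Rex cells, doxycycline-induced (0.5 μg/ml) one day before, FluxOR dye-loaded; compounds 30 min, then Tl+ stimulus (final 3 mM Tl2SO4, 0.15 mM K2SO4) with ouabain in chloride-free buffer. Fluorescence 488/525 nm for 90 s; IC50 from 10-point curve; DMSO 0.5 or 1%.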

hERG = hERG (Homo sapiens (Human), UniProt Q12809); assay: hERG Manual Patch Clamp Assay; conditions: human, HEK 293 cells stably expressing hERG channels; for inhibition at 1 µM: pH 7.4, 1 μM, read-out: hERG EP IC50 (% Inhibition at 1 μM); for inhibition at 3 µM: pH 7.4, 3 uM, read-out: hERG EP % Inhibition at 3 uM; for inhibition at 10 µM: pH 7.4, 10 uM, read-out: hERG EP % Inhibition at 10 uM
Sequence of hERG (Q12809 whole entry): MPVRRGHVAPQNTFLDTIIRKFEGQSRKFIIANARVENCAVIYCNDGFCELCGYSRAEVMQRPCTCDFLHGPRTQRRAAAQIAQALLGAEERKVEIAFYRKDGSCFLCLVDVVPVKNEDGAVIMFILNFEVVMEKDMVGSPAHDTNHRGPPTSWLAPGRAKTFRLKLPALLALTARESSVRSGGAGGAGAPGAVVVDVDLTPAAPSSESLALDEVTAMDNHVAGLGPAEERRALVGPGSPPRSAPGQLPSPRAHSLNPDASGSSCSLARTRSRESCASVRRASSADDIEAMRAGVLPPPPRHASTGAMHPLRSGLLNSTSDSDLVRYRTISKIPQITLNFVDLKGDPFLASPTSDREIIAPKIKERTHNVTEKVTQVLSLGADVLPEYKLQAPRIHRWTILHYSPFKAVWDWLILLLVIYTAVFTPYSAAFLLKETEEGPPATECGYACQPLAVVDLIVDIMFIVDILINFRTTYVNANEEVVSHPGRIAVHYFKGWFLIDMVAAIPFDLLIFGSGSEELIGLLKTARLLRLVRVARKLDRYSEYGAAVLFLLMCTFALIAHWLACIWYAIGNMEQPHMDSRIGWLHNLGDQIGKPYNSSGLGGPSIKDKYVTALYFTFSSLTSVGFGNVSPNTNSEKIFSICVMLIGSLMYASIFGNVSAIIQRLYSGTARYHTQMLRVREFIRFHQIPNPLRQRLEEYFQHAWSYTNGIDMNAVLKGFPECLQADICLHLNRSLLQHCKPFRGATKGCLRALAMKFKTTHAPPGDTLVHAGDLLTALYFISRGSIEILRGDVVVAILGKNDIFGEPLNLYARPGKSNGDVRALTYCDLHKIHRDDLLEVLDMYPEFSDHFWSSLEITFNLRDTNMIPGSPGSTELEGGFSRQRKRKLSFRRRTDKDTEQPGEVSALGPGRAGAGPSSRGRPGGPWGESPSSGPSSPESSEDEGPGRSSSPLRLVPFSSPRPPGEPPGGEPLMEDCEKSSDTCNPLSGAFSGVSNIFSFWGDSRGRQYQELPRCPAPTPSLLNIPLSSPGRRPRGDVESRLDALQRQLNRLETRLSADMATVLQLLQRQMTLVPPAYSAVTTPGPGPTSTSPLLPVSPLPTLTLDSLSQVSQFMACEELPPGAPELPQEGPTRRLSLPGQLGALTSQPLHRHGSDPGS
Experimental: hERG Manual Patch Clamp Assay
hERG electrophysiology assay: The experimental compounds were assessed for hERG activity on HEK 293 cells stably expressing hERG channels using patch clamp technique. Coverslips plated with hERG expressing cells were placed in the experimental chamber and were perfused with a solution composed of (in mM): 140 NaCl, 4 KCl, 1.8 CaCl2, 1 MgCl2, 10 Glucose, 10 HEPES (pH 7.4, NaOH) at room temperature. Borosilicate patch pipettes had tip resistances of 2-4 Mohms when filled with an internal solution containing: 130 KCl, 1 MgCl2, 1 CaCl2, 10 EGTA, 10 HEPES, 5 ATP-K2 (pH 7.2, KOH). The cells were clamped at −80 mV in whole cell configuration using an Axopatch 200B (Axon instruments, Union City, Calif.) patch clamp amplifier controlled by pClamp (Axon instruments) software. Upon formation of a gigaseal, the following voltage protocol was repeatedly (0.05 Hz) applied to record tail currents: depolarization step from −80 mV to +20 mV for 2 seconds followed by a hyperpolarization step to −65 mV (3 seconds) to elicit tail currents. Compounds were applied after stabilization of tail current. First, tail currents were recorded in presence of extracellular solution alone (control) and subsequently, in extracellular solution containing increasing compound concentrations. Each compound concentration was applied for 2-5 minutes. The percentage inhibition at each concentration was calculated as reduction in peak tail current with respect to the peak tail current recorded in the presence of control solution. Data analysis was performed in a custom made template. The percent inhibitions at different concentrations were plotted to obtain a concentration response curve, which was subsequently fitted with a four parameter equation to calculate hERG IC50 value.
A lower hERG % Inhibition value indicates less inhibition of the hERG current

hROMK = hROMK (Homo sapiens (Human), UniProt P48048); assay: ROMK Manual Patch Clamp Assay; conditions: whole-cell manual patch clamp, hROMK expressing cells; read-out: hROMK EP IC50
Sequence of hROMK (P48048 whole entry): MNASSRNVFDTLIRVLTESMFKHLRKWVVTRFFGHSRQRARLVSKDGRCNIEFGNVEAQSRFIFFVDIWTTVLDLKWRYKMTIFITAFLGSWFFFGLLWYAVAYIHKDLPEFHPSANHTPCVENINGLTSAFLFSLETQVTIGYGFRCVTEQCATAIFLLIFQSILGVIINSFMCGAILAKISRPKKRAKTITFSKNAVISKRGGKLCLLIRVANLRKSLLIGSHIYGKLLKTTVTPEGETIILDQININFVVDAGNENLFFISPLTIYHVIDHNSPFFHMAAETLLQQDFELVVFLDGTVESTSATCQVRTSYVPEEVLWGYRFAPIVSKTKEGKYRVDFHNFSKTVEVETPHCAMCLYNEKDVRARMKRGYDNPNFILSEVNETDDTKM
Experimental: ROMK Manual Patch Clamp Assay
Cell culture conditions: Cells were maintained in conditions similar to those for Thallium flux assay. hROMK channel expression was induced by adding 0.6 μg/ml of Doxycycline 16-24 hrs prior to the experiments. On the day of experiment, the cells were dissociated using Versene, resuspended in growth media and plated onto coverslips 15 minutes prior to use.
Electrophysiology: The coverslip plated with cells was placed in the experiment chamber perfused with bath solution composed of (in mM): 135 NaCl, 5 KCl, 2 CaCl2, 1 MgCl2, 10 HEPES, 5 Glucose (pH 7.4). Patch pipettes with resistance between 2-5 Megaohms, when filled with a solution containing (in mM): 135 KCl, 1 EGTA, 1 MgCl2, 10 HEPES, 2 Na2ATP (pH 7.3), were used to form gigaseals. The cells were voltage clamped at −75 mV in whole-cell configuration using an Axopatch 200b or Multiclamp 700b (Molecular Devices) amplifier controlled by pClamp Software (Molecular Devices). The current was recorded by applying a voltage step to −120 mV every 10 seconds. For each compound, 4-6 concentrations were applied for 3-8 minutes in a successive manner starting with the lowest concentration. At the end of the experiment, the cells were perfused with bath solution containing 2 mM Ba^2+ to isolate the contribution of hROMK current.
Data analysis: Raw current values (5 traces each for control, different compound concentration and Ba^2+ treatment groups) were exported from Clampfit into Microsoft Excel where the current remaining after application of Ba^2+ was subtracted from raw current to obtain hROMK specific current. These hROMK current values (average of 5 traces for each group) were then imported into a custom made template to generate a concentration response curve, which was subsequently fitted with a four parameter equation to calculate the IC50 value of the test compound.
The data in Table 4 is reported with two significant figures.

Sequence of hROMK (human Kir1.1) (P48048 whole entry): as above

IC50 (hROMK (human Kir1.1)) [nM]	IC50 (hROMK) [nM]	Compound	inhibition at 1 µM (hERG) [%]	inhibition at 3 µM (hERG) [%]	inhibition at 10 µM (hERG) [%]
62	13	Cc1cn(-c2ncc3c(n2)CCN(CC(O)c2ccc4c(c2C)COC4=O)C3)cn1 (single isomer, unassigned) [Example 58-I, 5-(1-hydroxy-2-(2-(4-methyl-1H-imidazol-1-yl)-7,8-dihydropyrido[4,3-d]pyrimidin-6(5H)-yl)ethyl)-4-methyl isobenzofuran-1(3H)-one]	9	20	42
135	87	Cc1c(C(O)CN2CCc3nc(-n4cnc5ncccc54)ncc3C2)ccc2c1COC2=O (single isomer, unassigned) [Example 53-I, 5-(2-(2-(1H-imidazo[4,5-b]pyridin-1-yl)-7,8-dihydropyrido[4,3-d]pyrimidin-6(5H)-yl)-1-hydroxyethyl)-4-methylisobenzofuran-1(3H)-one]	13	34	–
44	12	Cc1c(C(O)CN2CCc3nc(-n4cc(C#N)cn4)ncc3C2)ccc2c1COC2=O (single isomer, unassigned) [Example 56-I, 1-(6-(2-hydroxy-2-(4-methyl-1-oxo-1,3-dihydroisobenzofuran-5-yl)ethyl)-5,6,7,8-tetrahydropyrido[4,3-d]pyrimidin-2-yl)-1H-pyrazole-4-carbonitrile]	35	65	82
29	31	N#Cc1ccc(Nc2ccc3c(c2)CCN(Cc2ccc4c(c2)COC4=O)C3)cc1F [Example 4, 2-fluoro-4-((2-((1-oxo-1,3-dihydroisobenzofuran-5-yl)methyl)-1,2,3,4-tetrahydroisoquinolin-6-yl)amino)benzonitrile]	94	–	–
70	34	Cc1c(C(O)CN2CCc3nc(-n4ccc5c(C#N)cncc54)ncc3C2)ccc2c1COC2=O (single isomer, unassigned) [Example 42-I, 1-(6-(2-hydroxy-2-(4-methyl-1-oxo-1,3-dihydroisobenzofuran-5-yl)ethyl)-5,6,7,8-tetrahydropyrido[4,3-d]pyrimidin-2-yl)-1H-pyrrolo[2,3-c]pyridine-4-carbonitrile]	41	–	–
224	–	Cc1c(C(O)CN2CCc3nc(-n4ccnc4C)ncc3C2)ccc2c1COC2=O (single isomer, unassigned) [Example 59-I, 5-(1-hydroxy-2-(2-(2-methyl-1H-imidazol-1-yl)-7,8-dihydropyrido[4,3-d]pyrimidin-6(5H)-yl)ethyl)-4-methyl isobenzofuran-1(3H)-one]	13	27	51
29	23	Cc1c(C(O)CN2CCc3nc(-n4cc(C#N)c5ncccc54)ncc3C2)ccc2c1COC2=O (single isomer, unassigned) [Example 68-I, 1-(6-(2-hydroxy-2-(4-methyl-1-oxo-1,3-dihydroisobenzofuran-5-yl)ethyl)-5,6,7,8-tetrahydropyrido[4,3-d]pyrimidin-2-yl)-1H-pyrrolo[3,2-b]pyridine-3-carbonitrile]	22	54	86
180	–	Cc1c(C(O)CN2CCc3nc(-n4ccc5ncccc54)ncc3C2)ccc2c1COC2=O (single isomer, unassigned) [Example 36-I, 5-(2-(2-(1H-pyrrolo[3,2-b]pyridin-1-yl)-7,8-dihydropyrido[4,3-d]pyrimidin-6(5H)-yl)-1-hydroxyethyl)-4-methyl-isobenzofuran-1(3H)-one]	12	–	–
60	23	Cc1c(C(O)CN2CCc3nc(-n4ncc5ncccc54)ncc3C2)ccc2c1COC2=O (single isomer, unassigned) [Example 41-I, 5-(2-(2-(1H-pyrazolo[4,3-b]pyridin-1-yl)-7,8-dihydropyrido[4,3-d]pyrimidin-6(5H)-yl)-1-hydroxyethyl)-4-methylisobenzofuran-1(3H)-one]	11	–	–
